The subject of assay [1] is interferon regulatory factor (IRF) pathway in THP-1 dual cells. As to the kind of experiment: THP-1 Dual reporter assay, IRF pathway (luciferase). The note with it: Homo sapiens, THP1-Dual, read-out: THP1 Dual EC50 (μM) IRF. The class given is cell-based. The gist of the method:
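Readouts come from THP-1 dual cell supernatant taken 18 h after STING agonist addition. SEAP activity is developed in detection medium for 1–2 h at 37° C and read at 630/655 nm; luciferase is read by luminescence immediately after reagent addition.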
On the technique in general: In a reporter assay the amount or activity of a reporter protein is the signal.

In assay [2] the test system is NF-κB pathway in THP-1 dual cells. As to the kind of experiment: THP-1 Dual reporter assay, NF-κB pathway (SEAP). In kind it is cell-based. Particulars: Homo sapiens, THP1-Dual, read-out: THP1 Dual EC50 (μM) NFkB. The gist of the method:
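After 18 h exposure of THP-1 dual cells to the STING agonist compounds, culture medium was collected. Part was mixed with luminescence reagent and read at once for IRF-driven luciferase; another part was incubated with SEAP detection medium for 1 or 2 hours at 37° C before absorbance at 630 or 655 nm.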

The mark [3] stands for this setting: 18 h stimulation, absorbance at 630 or 655 nm.

Each structure is given as a SMILES string. Where a name gives a salt, the structure may show the parent alone. Read-outs that look alike come from different tables or passages of the source.

For orientation: EC50 means the concentration needed to bring the measured effect to its halfway point. `Cc1ccc(N2CCC[C@H](N(Cc3ccnc(C)c3)Cc3cn(C4CC4)c4cc(OCCN(C)C(=O)CCOCCOCCOCCC(=O)O)c(F)cc4c3=O)C2)cn1` [Example 11G, 3-[2-(2-{2-[(2-{[1-cyclopropyl-6-fluoro-3-({[(3S)-1-(6-methylpyridin-3-yl)piperidin-3-yl][(2-methylpyridin-4-yl)methyl]amino}methyl)-4-oxo-1,4-dihydroquinolin-7-yl]oxy}ethyl)(methyl)carbamoyl]ethoxy}ethoxy)ethoxy]propanoic acid formate]: the EC50 lay within 1 to 10 µM in assay [1] (18 h stimulation, luminescence) and 1 to 10 µM in assay [2] (setting [3]).
Take `Cc1ccc(N2CCC[C@H](N(Cc3ccnc(C)c3)Cc3cn(C4CC4)c4cc(OCCN(C)CCOCCOCCOCCOCCN)c(F)cc4c3=O)C2)cn1` [Example 11C, 7-[(1-amino-15-methyl-3,6,9,12-tetraoxa-15-azaheptadecan-17-yl)oxy]-1-cyclopropyl-6-fluoro-3-({[(3S)-1-(6-methylpyridin-3-yl)piperidin-3-yl][(2-methylpyridin-4-yl)methyl]amino}methyl)-1,4-dihydroquinolin-4-one]: the EC50 in assay [1] (18 h stimulation, luminescence) was in the range of 1 to 10 µM; in assay [2] (setting [3]), 1 to 10 µM.
In the case of `Cc1ccc(N2CCC[C@H](N(Cc3ccnc(C)c3)Cc3cn(C4CC4)c4cc(N5CC[C@@H](NC(=O)OCc6ccc(NC(=O)[C@H](CCCNC(N)=O)NC(=O)[C@@H](NC(=O)CCOCCOCCOCCN=[N+]=[N-])C(C)C)cc6)C5)c(F)cc4c3=O)C2)cn1` [Example 12A, {4-[(2S)-2-[(2S)-2-(3-{2-[2-(2-azidoethoxy)ethoxy]ethoxy}propanamido)-3-methyl-butanamido]-5-(carbamoylamino)pentanamido]phenyl}methyl N-[(3R)-1-[1-cyclopropyl-6-fluoro-3-({[(3S)-1-(6-methylpyridin-3-yl)piperidin-3-yl][(2-methylpyridin-4-yl)methyl]amino}methyl)-4-oxo-1,4-dihydroquinolin-7-yl]pyrrolidin-3-yl]carbamate], the EC50 in assay [1] (18 h stimulation, luminescence) is 1 to 10 µM; in assay [2] (setting [3]), over 10 µM.
For `Cc1ccc(N2CCC[C@H](N(Cc3ccnc(C)c3)Cc3cn(C4CC4)c4cc(OCCOC(=O)NCc5ccc(NC(=O)CCOCCOCCOCCNC(=O)OC(C)(C)C)cc5)c(F)cc4c3=O)C2)cn1` [Example 47B, 2-{[1-cyclopropyl-6-fluoro-3-({[(3S)-1-(6-methylpyridin-3-yl)piperidin-3-yl][(2-methylpyridin-4-yl)methyl]amino}methyl)-4-oxo-1,4-dihydroquinolin-7-yl]oxy}ethyl N-{[4-(3-{2-[2-(2-{[(tert-butoxy)carbonyl]amino}ethoxy)ethoxy]ethoxy}propanamido)phenyl]methyl}carbamate], the EC50 in assay [1] (18 h) and in assay [2] (18 h) was under 1 µM throughout.
With `Cc1ccc(N2CCC[C@H](N(Cc3ccnc(C)c3)Cc3cn(C(C)C)c4nc(N5CC[C@@H](O)C5)c(F)cc4c3=O)C2)cn1` [Example 42, 6-fluoro-7-[(3R)-3-hydroxypyrrolidin-1-yl]-3-({[(3S)-1-(6-methylpyridin-3-yl)piperidin-3-yl][(2-methylpyridin-4-yl)methyl]amino}methyl)-1-(propan-2-yl)-1,4-dihydro-1,8-naphthyridin-4-one], the EC50 in assay [1] (18 h) and in assay [2] (18 h) was under 1 µM in each case.
Turning to `Cc1cc(CN(Cc2cn(C3CC3)c3cc(OCCO)c(F)cc3c2=O)[C@H]2CCCN(c3cccnc3)C2)ccn1` [Example 84, 1-cyclopropyl-6-fluoro-7-(2-hydroxyethoxy)-3-({[(2-methylpyridin-4-yl)methyl][(3S)-1-(pyridin-3-yl)piperidin-3-yl]amino}methyl)-1,4-dihydroquinolin-4-one hydrochloride], the EC50 in assay [1] (18 h) and in assay [2] (18 h) was under 1 µM each time.
As to `Cc1ccc(N2CCC[C@H](N(Cc3ccnc(C)c3)Cc3cn(CC(N)=O)c4ccccc4c3=O)C2)cn1` [Example 77, 2-[3-({[(3S)-1-(6-methylpyridin-3-yl)piperidin-3-yl][(2-methylpyridin-4-yl)methyl]amino}methyl)-4-oxo-1,4-dihydroquinolin-1-yl]acetamide], the half-maximal effective concentration (EC50) fell in the range of 1 to 10 µM in assay [1] (18 h stimulation, luminescence) and 1 to 10 µM in assay [2] (setting [3]).
Turning to `Cc1cc(CN(Cc2cn(C)c3ccccc3c2=O)[C@H]2CCCN(c3cncc(CO)c3)C2)ccn1` [Example 44], the EC50 in assay [1] (18 h) and in assay [2] (18 h) was over 10 µM each time.
On to `Cc1ccc(N2CCC[C@H](N(Cc3ccnc(C)c3)Cc3cn(CCO)c4ccccc4c3=O)C2)cn1` [Example 41, 1-(2-hydroxyethyl)-3-({[(3S)-1-(6-methylpyridin-3-yl)piperidin-3-yl][(2-methylpyridin-4-yl)methyl]amino}methyl)-1,4-dihydroquinolin-4-one], for which the EC50 in assay [1] (18 h stimulation, luminescence) was in the range of 1 to 10 µM; in assay [2] (setting [3]) it was 1 to 10 µM.
For `Cc1cc(CN(Cc2cn(C3CC3)c3cc(Cl)c(F)cc3c2=O)[C@H]2CCCN(c3ccc(C(N)=O)nc3)C2)ccn1` [Example 103, 5-[(3S)-3-{[(7-Chloro-1-cyclopropyl-6-fluoro-4-oxo-1,4-dihydroquinolin-3-yl)methyl][(2-methylpyridin-4-yl)methyl]amino}piperidin-1-yl]pyridine-2-carboxamide], the EC50 in assay [1] (18 h stimulation, luminescence) was under 1 µM; in assay [2] (setting [3]) it was under 1 µM.
With `Cc1cc(CN(Cc2cn(C3CC3)c3cc(OCCO)c(F)cc3c2=O)[C@H]2CCCN(c3cnc(C)c(F)c3)C2)ccn1` [Example 83, 1-cyclopropyl-6-fluoro-3-({[(3S)-1-(5-fluoro-6-methylpyridin-3-yl)piperidin-3-yl][(2-methylpyridin-4-yl)methyl]amino}methyl)-7-(2-hydroxyethoxy)-1,4-dihydroquinolin-4-one], the EC50 in assay [1] (18 h stimulation, luminescence) was under 1 µM; in assay [2] (setting [3]) it was under 1 µM.
As to `Cc1ccc(N2CCC[C@H](N(Cc3ccnc(C)c3)Cc3cn(C4CC4)c4cc(N5CC[C@@H](N)C(F)(F)C5)c(F)cc4c3=O)C2)cn1.Cl` (single isomer, unassigned) [Example 56, 7-[(4R)-4-amino-3,3-difluoropiperidin-1-yl]-1-cyclopropyl-6-fluoro-3-({[(3S)-1-(6-methylpyridin-3-yl)piperidin-3-yl][(2-methylpyridin-4-yl)methyl]amino}methyl)-1,4-dihydroquinolin-4-one], the EC50 is under 1 µM in assay [1] (18 h stimulation, luminescence) and under 1 µM in assay [2] (setting [3]).
With `Cc1cc(CN(Cc2c[nH]c3ccccc3c2=O)[C@H]2CCCN(c3ccc(N)nc3)C2)ccn1` [Example 38, 3-({[(3S)-1-(6-aminopyridin-3-yl)piperidin-3-yl][(2-methylpyridin-4-yl)methyl]amino}methyl)-1,4-dihydroquinolin-4-one], the EC50 in assay [1] (18 h stimulation, luminescence) is under 1 µM; in assay [2] (setting [3]), under 1 µM.
As for `COc1cc(CN(Cc2cn(C3CC3)c3cc(F)c(F)cc3c2=O)[C@H]2CCCN(c3ccc(NC(C)=O)nc3)C2)ccn1` [Example 99, N-{5-[(3S)-3-{[(1-cyclopropyl-6,7-difluoro-4-oxo-1,4-dihydroquinolin-3-yl)methyl][(2-methoxypyridin-4-yl)methyl]amino}piperidin-1-yl]pyridin-2-yl}acetamide], the EC50 in assay [1] (18 h stimulation, luminescence) was under 1 µM; in assay [2] (setting [3]), under 1 µM.
Take `Cc1ccc(N2CCC[C@H](N(Cc3ccnc(C)c3)Cc3cn(C(C)C)c4cc(N5CC[C@@H](O)C5)ccc4c3=O)C2)cn1` [Example 52, 7-[(3R)-3-hydroxypyrrolidin-1-yl]-3-({[(3S)-1-(6-methylpyridin-3-yl)piperidin-3-yl][(2-methylpyridin-4-yl)methyl]amino}methyl)-1-(propan-2-yl)-1,4-dihydroquinolin-4-one]: the EC50 was under 1 µM in assay [1] (18 h stimulation, luminescence) and under 1 µM in assay [2] (setting [3]).
`Cc1ccc(N2CCC[C@H](N(Cc3ccnc(C)c3)Cc3cn(C(C)C)c4cc(N5CCN(CCO)CC5)ccc4c3=O)C2)cn1` [Example 53, 7-[4-(2-Hydroxyethyl)piperazin-1-yl]-3-({[(3S)-1-(6-methylpyridin-3-yl)piperidin-3-yl][(2-methylpyridin-4-yl)methyl]amino}methyl)-1-(propan-2-yl)-1,4-dihydroquinolin-4-one]: the EC50 in assay [1] (18 h stimulation, luminescence) was under 1 µM; in assay [2] (setting [3]), under 1 µM.
Turning to `Cc1ccc(N2CCC[C@H](N(Cc3ccnc(C)c3)Cc3cn(C4CC4)c4cc(OCCN(C)C(=O)CCOCCOCCOCCN)c(F)cc4c3=O)C2)cn1` [Example 11B, 3-{2-[2-(2-aminoethoxy)ethoxy]ethoxy}-N-(2-{[1-cyclopropyl-6-fluoro-3-({[(3S)-1-(6-methylpyridin-3-yl)piperidin-3-yl][(2-methylpyridin-4-yl)methyl]amino}methyl)-4-oxo-1,4-dihydroquinolin-7-yl]oxy}ethyl)-N-methylpropanamide], the EC50 in assay [1] (18 h stimulation, luminescence) lay in the range of 1 to 10 µM; in assay [2] (setting [3]) it was 1 to 10 µM.
Regarding `COc1cc(CN(Cc2cn(C3CC3)c3cc(N4CC[C@@H](O)C4)c(F)cc3c2=O)[C@H]2CCCN(c3cccnc3)C2)ccn1` [Example 65, 1-cyclopropyl-6-fluoro-7-[(3R)-3-hydroxypyrrolidin-1-yl]-3-({[(2-methoxypyridin-4-yl)methyl][(3S)-1-(pyridin-3-yl)piperidin-3-yl]amino}methyl)-1,4-dihydroquinolin-4-one hydrochloride], the EC50 in assay [1] (18 h) and in assay [2] (18 h) was under 1 µM in each case.
Turning to `C#CCOCCOCCOCCOCCOCCC(=O)O[C@H]1CCCN(c2cc3c(cc2F)c(=O)c(CN(Cc2ccnc(C)c2)[C@H]2CCCN(c4ccc(C)nc4)C2)cn3C2CC2)C1` [Example 31A, (3S)-1-[1-cyclopropyl-6-fluoro-3-({[(3S)-1-(6-methylpyridin-3-yl)piperidin-3-yl][(2-methylpyridin-4-yl)methyl]amino}methyl)-4-oxo-1,4-dihydroquinolin-7-yl]piperidin-3-yl 4,7,10,13,16-pentaoxanonadec-18-ynoate], the EC50 in assay [1] (18 h stimulation, luminescence) is under 1 µM; in assay [2] (setting [3]) it was under 1 µM.

(Values after US12643879B2, “Functionalized heterocyclic compounds as modulators of stimulator of interferon genes (STING)” (RYVU THERAPEUTICS S.A., priority 2019, dated 2026).)
